One compound from patent publication US7737182B2, “Pharmaceuticals for xerosis” (Taisho Pharmaceutical Co., Ltd., priority 2001, dated 2010) can be followed below.

What is called IC50 is the point on the concentration scale where inhibition reaches its midpoint. Low values mean inhibition by little substance, high ones a need for much substance.

For one assay, the system named is human platelets. The assay is described as follows: Suppression of ADP-induced aggregation of human platelets. It is filed as cell-based. The following applies: human platelet-rich plasma, ADP (3 μM), Born method. Here is the method:
(A) Using the active ingredient of the present invention (compound No. 7) and PGD2 as a control for comparison, prostaglandin D receptor binding selectivity was determined with reference to the platelet aggregation suppressing action as the prostaglandin D receptor agonist action. 1. Human Platelet Aggregation Suppressing Action Suppression of ADP-Induced Aggregation of Human Platelets
The test was performed on purchased platelet-rich plasma (PRP) (6×10^8 platelets/mL) and platelet aggregation was measured based on the Born method (Nature, vol. 194, p. 927, 1962). To 100 μL of PRP, 5 μL of a 1 nM-3 μM test drug solution in ethanol was added and the mixture was incubated at 37° C. for 1 minute with stirring at 1000 rpm. To the resulting mixture, 5 μL of an aggregation inducer [ADP (3 μM)] was added to induce platelet aggregation and a maximum percent aggregation (a maximum change in light transmittance that occurred within 5 minutes after the induction of platelet aggregation) was determined by an aggregometer. The percent suppression of aggregation by each test drug was calculated from the maximum percent aggregation by the test drug as relative to the maximum percent aggregation by ethanol instead of the test drug solution and IC50 values were determined from the constructed dose-response curve.

The subject of the next assay is guinea pig platelets. The assay is described as follows: Suppression of ADP-induced aggregation of guinea pig platelets. In kind it is cell-based. The following applies: guinea pig platelet-rich plasma, ADP (3 μM). Here is the method: Ten-week-old Hartley male guinea pigs were anesthetized with pentobarbital (30 mg/kg, i.p. injected) and a total of 20 mL of blood was sampled into a syringe containing 2.0 mL of 3.8% sodium citrate. The blood was immediately centrifuged at 900 rpm for 10 minutes at 20° C. to recover the supernatant PRP. By further centrifugation at 3000 rpm for 10 minutes at 20° C., the supernatant PPP was recovered. The platelet count of PRP was diluted with PPP to 30×10^4 platelets/μL for subsequent use.
For platelet aggregation measurement, a platelet aggregation measuring instrument (PAM-8C) was employed. To 274 μL of PRP, 1 μL of a 0.287-95.7 nM test drug solution in ethanol was added and the mixture was incubated at 37° C. for 3 minutes with stirring at 1000 rpm. After the incubation, 25 μL of ADP (3 μM) was added to induce platelet aggregation and a maximum percent aggregation for 5 minutes was measured.
The percent suppression of aggregation by each test drug was calculated from the maximum percent aggregation by the test drug as relative to the maximum percent aggregation by ethanol instead of the test drug solution and IC50 values were determined from the constructed dose-response curve.

Assay [1] relates to Fifty-week-old BALB/c male mice. The assay is described as follows: Aged mouse skin's barrier function, treatment test, TEWL (Test Example 7). It is filed as in vivo. The following applies: 50-week-old mice; 0.0001% in ethanol, 200 μL, once a day for 3 days. Here is the method:
Fifty-week-old BALB/c male mice (eight in each group) were shaven in a rostral dorsolateral area of 4 cm^2 (2 cm×2 cm) with electric clippers. Starting on the next day, a solvent (ethanol, 200 μL) or a drug dissolved in the solvent (compound No. 7 or PGD2, each being at 0.0001% in an amount of 200 μL) was applied to the shaven site for 3 days on once-a-day basis.
On the day next to the third application of the solvent or drug, TEWL at the same site was measured with Tewameter (TM210 of Courage & Khazawa, Germany) to evaluate the drug's action.

Assay [2] relates to BALB/c male mice. As to the kind of experiment: Mouse skin's barrier function, preventive test, TEWL (Test Example 6). The following applies: cohabitation with dermatitic NC/Nga mice; 0.01% in ethanol, 100 μL, once a day for 7 days. In kind it is in vivo. As for the experimental part:
Six-week-old BALB/c male mice in groups of six were shaven in a rostral dorsolateral area of 4 cm^2 (2 cm×2 cm) with electric clippers and kept in the same cage as NC/Nga mice that had developed dermatitis. From the day next to the start of cohabitation, a solvent (ethanol, 100 μL) or a drug dissolved in the solvent (compound No. 7, PGD2, PGF2α, or PGE1, all being at 0.01% in an amount of 100 μL) was applied to the shaven site for 7 days on once-a-day basis.
On the day next to the seventh application of the solvent or drug, the transepidermal water loss (TEWL) at the same site was measured with Tewameter (TM210 of Courage & Khazawa, Germany) to evaluate the drug's action, with the solvent-applied group being used as the control group.

In a further assay the target is T1, prostaglandin D receptor (Homo sapiens, UniProt Q13258).
T1 construct: separate the supernatant (PRP, or platelet-rich plasma); endogenous in cells; host or cells: human platelets (platelet-rich plasma from healthy male donors)
T1 sequence (Q13258 1-359): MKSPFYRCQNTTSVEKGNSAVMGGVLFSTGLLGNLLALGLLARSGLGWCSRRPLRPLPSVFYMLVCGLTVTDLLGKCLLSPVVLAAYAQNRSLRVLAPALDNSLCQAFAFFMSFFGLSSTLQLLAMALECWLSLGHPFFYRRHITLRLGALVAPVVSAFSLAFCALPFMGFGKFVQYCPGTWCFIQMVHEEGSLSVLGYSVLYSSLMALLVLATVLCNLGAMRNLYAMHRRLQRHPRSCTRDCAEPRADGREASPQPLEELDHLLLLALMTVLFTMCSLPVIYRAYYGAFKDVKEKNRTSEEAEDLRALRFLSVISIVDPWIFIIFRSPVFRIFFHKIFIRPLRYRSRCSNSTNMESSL
The assay is described as follows: Antagonism by BW A868C of the suppression of ADP-induced human platelet aggregation. In kind it is cell-based. As to conditions: final concentration 1000 nmol/L, human PRP, ADP 3 μmol/L. Here is the method: The prostaglandin D receptor selective antagonist used in the test was ((+/−)-3-benzyl-5-(6-carboxyhexyl)-1-(2-cyclohexyl-2-hydroxyethylamino)-hydantoin) (hereunder designated BW A868C) (Sigma-Aldrich Japan K.K.)
BW A868C was diluted with ethanol to final concentrations of 0.03 μmol/L, 0.1 μmol/L, 0.3 μmol/L, 1 μmol/L, 3 μmol/L and 10 μmol/L.
Compound No. 7 and PGD2 were diluted with ethanol to 287 nmol/L and 300 nmol/L, respectively, for subsequent use.
Blood was taken from the cubital veins of human healthy males and sampled into a tube containing 3.13% sodium citrate. The blood sample was centrifuged at 1,000 rpm for 10 minutes at 20° C. to separate the supernatant (PRP, or platelet-rich plasma) and the residue was further centrifuged at 3,000 rpm for 10 minutes at 20° C. to separate the supernatant (PPP, or platelet-poor plasma). The platelet count of PRP was appropriately diluted with PPP to 30×10^4 platelets/μL for subsequent use.
Platelet aggregation was measured with a platelet aggregation measuring instrument (PAM-8C; MC MEDICAL Co., LTD.) by the Born method (Nature, vol. 194, p. 927, 1962). A portion (273 μL) of PRP (for the BW A868C groups, 1 μL of BW A868C was added at varying concentrations) was preincubated at 37° C. for 3 minutes with stirring at 1,000 rpm. After the preincubation, 1 μL of ethanol or a test substance (compound No. 7: final concentration at 95.7 nmol/L; PGD2: final concentration at 1000 nmol/L) was added and the mixture was incubated at 37° C. for 3 minutes with stirring at 1000 rpm. After the incubation, 25 μL of ADP (final concentration at 3 μmol/L) was added to induce platelet aggregation and a maximum percent aggregation for 5 minutes was measured.

Assay [3] deals with BALB/c male mice. As to the kind of experiment: Mouse skin's barrier function, treatment test, TEWL (Test Example 5). In kind it is in vivo. As to conditions: barrier destroyed with acetone/diethyl ether; 0.01% in ethanol, 100 μL, once a day for 2 days. As for the experimental part: Six-week-old BALB/c male mice in groups of eight were shaven in a rostral dorsolateral area of 4 cm^2 (2 cm×2 cm) with electric clippers and the shaven area was covered for 60 seconds with an absorbent cotton (2 cm×2 cm) impregnated with a 1:1 liquid mixture of acetone and diethyl ether. This treatment for destroying the skin's barrier function was performed for 3 consecutive days on once-a-day basis. Starting on the day next to completion of the treatment for barrier destruction at day 3, a solvent (ethanol, 100 μL) or a drug dissolved in the solvent (compound No. 7, PGD2, PGF2α, or PGE1, all being at 0.01% in an amount of 100 μL) was applied to the barrier destroyed site for 2 days on once-a-day basis. On the day next to the second application of the solvent or drug, the transepidermal water loss (TEWL) at the same site was measured with Tewameter (TM210 of Courage & Khazawa, Germany) to evaluate the drug's action.

On to `CCCCC[C@H](O)/C=C/[C@H]1C(=O)C[C@H](O)[C@@H]1C/C=C\CCCC(=O)O` [PGD2, prostaglandin D2, reference compound], for which the figures for the IC50 with human platelets and in the assay with guinea pig platelets were 0.011 µM and 0.0543 ± 0.023 µM, respectively. Further, the “transepidermal water loss (TEWL) compared to the control group” value in assay [1] is listed as “no significant difference from the control group”; in the assay with BALB/c male mice [2], “significant decrease in TEWL”. In addition, the “platelet aggregation suppressing action compared with control group (ethanol)” value at prostaglandin D receptor was “significant platelet aggregation suppressing action”. Moreover, in the assay with BALB/c male mice [3], the “transepidermal water loss (TEWL) compared to the solvent-applied control group” value is reported as “no significant difference from the control group”.
